Like-named read-outs stand apart in the source and are kept apart here.
Key:
human PBMCs = assay: CD3/CD28 stimulated IL-2 release NECA reversal assay in human PBMCs; assay type: cell-based; conditions: PBMC, 1 uM NECA, 24 hours, IL-2 in culture supernatant
Procedure: Biological Example—CD3/CD28 Stimulated IL-2 Release NECA Reversal Assay in Human PBMCs
Blood is drawn from healthy volunteers using sodium citrate as the anticoagulant (0.3% final concentration). After centrifugation of the blood over Histopaque-1077, PBMCs are collected from the Histopaque/plasma interface and washed twice in PBS (300 g for 10 mins at room temp). Cells are plated at 50,000 cells/well in 150 μl RPMI/10% FCS in 96-well cell culture plates that have been precoated with 1 ug/ml CD3 antibody. 50 μl diluted compound mix is added to the cells, to obtain final concentrations of 1 ug/ml CD28 antibody, 1 uM NECA and 0.003-10 μM adenosine receptor antagonist. Assay plates are incubated for 24 hours at 37° C. in a humidified incubator. Culture supernatant is tested for IL-2 levels using the human IL-2 Tissue Culture Kit (Meso Scale Discovery). Data for dose-response curves is calculated as % inhibition with 100% inhibition defined from no agonist control wells (+CD3/28-NECA)

[1] = target: human Adenosine A1 receptor (Homo sapiens (Human), UniProt P30542); assay: Adenosine receptor TR-FRET binding assay (A1); conditions: inhibition of binding of 100 nM CA200645, CHO cell membranes
How it was run: (§1)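 CHO membranes, Tb-labelled hA1/hA2a/hA2b/hA3; tracer CA200645 at 100 nM (A1, A2a, A3) or 30 nM (A2b); buffer with saponin, 1% DMSO, pluronic; 2 h RT. NSB with 10 μM XAC. Read TR-FRET (ex 337, em 620/665 nm); IC50 → Ki via Cheng–Prusoff.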

[2] = target: human Adenosine A3 receptor (Homo sapiens (Human), UniProt P0DMS8); assay: Adenosine receptor TR-FRET binding assay (A3); conditions: inhibition of binding of 100 nM CA200645, CHO cell membranes
How it was run: as §1

[3] = test system: CD8+T cells in human whole blood; assay: Measurement of pCREB in CD8+T cells in human whole blood; assay type: cell-based; conditions: 3 μM NECA, rolipram
Procedure: Biological Example—Measurement of pCREB in CD8+T Cells in Human Whole Blood
Heparinised human whole blood was pre-incubated at 37° C. with serial dilutions of A2a antagonists for 20 min. and the phosphodiesterase inhibitor rolipram to amplify the pCREB response. The adenosine receptor agonist NECA is then added at a final concentration of 3 μM and following a 60 min incubation the blood is fixed and red blood cells lysed. White blood cells are isolated, permeabilized and stained with directly conjugated fluorescent antibodies to phospho-CREB (Alexa Fluor 488) and CD8 (Alexa Fluor 647) and the level of phospho-CREB in CD8+T cells is measured by FACS using a BD Accuri C6 Flow Cytometer.

[4] = target: human Adenosine A2a receptor (Homo sapiens (Human), UniProt P29274); assay: Adenosine receptor TR-FRET binding assay (A2a); conditions: inhibition of binding of 100 nM CA200645, CHO cell membranes
How it was run: as §1

[5] = target: human Adenosine A2b receptor (Homo sapiens (Human), UniProt P29275); assay: Adenosine receptor TR-FRET binding assay (A2b)
How it was run: as §1

[6] = TR-FRET, inhibition of binding of 30 nM CA200645, CHO cell membranes

Sequence of human Adenosine A1 receptor (P30542 whole entry): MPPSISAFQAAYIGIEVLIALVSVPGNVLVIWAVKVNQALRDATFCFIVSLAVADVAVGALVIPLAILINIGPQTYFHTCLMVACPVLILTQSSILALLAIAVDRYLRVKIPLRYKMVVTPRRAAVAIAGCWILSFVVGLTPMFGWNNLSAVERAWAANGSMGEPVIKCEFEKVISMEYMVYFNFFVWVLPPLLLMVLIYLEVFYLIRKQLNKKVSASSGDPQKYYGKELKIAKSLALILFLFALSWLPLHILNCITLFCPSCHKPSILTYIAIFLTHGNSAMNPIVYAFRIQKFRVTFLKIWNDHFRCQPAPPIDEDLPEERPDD
Sequence of human Adenosine A2a receptor (P29274 whole entry): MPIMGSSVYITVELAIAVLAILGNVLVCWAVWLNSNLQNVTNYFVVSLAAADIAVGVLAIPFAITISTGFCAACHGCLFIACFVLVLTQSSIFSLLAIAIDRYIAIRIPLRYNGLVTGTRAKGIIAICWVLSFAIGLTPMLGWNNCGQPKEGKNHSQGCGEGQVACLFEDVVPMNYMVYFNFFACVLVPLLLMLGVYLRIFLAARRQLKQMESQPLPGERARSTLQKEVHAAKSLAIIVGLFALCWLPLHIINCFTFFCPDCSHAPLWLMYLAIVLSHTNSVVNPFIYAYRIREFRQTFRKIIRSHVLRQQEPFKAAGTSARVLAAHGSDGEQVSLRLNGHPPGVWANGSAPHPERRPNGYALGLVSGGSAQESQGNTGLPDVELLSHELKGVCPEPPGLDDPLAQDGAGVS
Sequence of human Adenosine A2b receptor (P29275 whole entry): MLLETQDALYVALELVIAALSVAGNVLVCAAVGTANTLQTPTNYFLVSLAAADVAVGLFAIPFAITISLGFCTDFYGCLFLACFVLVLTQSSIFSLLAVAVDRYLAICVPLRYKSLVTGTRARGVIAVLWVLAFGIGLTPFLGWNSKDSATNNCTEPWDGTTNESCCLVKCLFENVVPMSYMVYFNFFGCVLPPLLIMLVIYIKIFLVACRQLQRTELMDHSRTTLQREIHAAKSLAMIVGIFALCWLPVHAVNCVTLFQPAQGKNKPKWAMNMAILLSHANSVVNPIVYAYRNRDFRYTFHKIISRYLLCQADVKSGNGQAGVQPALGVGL
Sequence of human Adenosine A3 receptor (P0DMS8 whole entry): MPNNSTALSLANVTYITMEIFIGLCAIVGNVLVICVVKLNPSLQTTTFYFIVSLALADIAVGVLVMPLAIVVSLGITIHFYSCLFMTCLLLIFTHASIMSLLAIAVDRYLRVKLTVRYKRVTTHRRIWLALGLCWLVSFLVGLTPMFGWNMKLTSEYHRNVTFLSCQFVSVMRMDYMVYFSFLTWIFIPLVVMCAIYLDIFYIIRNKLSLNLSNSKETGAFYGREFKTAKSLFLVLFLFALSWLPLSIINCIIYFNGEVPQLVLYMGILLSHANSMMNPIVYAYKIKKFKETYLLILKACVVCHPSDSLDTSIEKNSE

Row | Ki [1] [nM] | Ki [2] [nM] | IC50 [3] [nM] | Ki [4] [nM] | Ki [5, 6] [nM] | Ki [5] [nM] | SMILES | IC50 (human PBMCs) [nM]
1 | 21 | 225 | 80 | 0.41 | 0.8 |  | Cc1cc(-c2sc(NC(=O)N3CCC(C)(C#N)C3)nc2-c2cccc(C#N)c2)cc(C)n1 (racemic) [Example 27, 3-Cyano-N-[4-(3-cyanophenyl)-5-(2,6-dimethyl-4-pyridyl)thiazol-2-yl]-3-methyl-pyrrolidine-1-carboxamide] | 0.9
2 | 234 | 849 | 280 | 0.4 | 1 |  | Cc1cc(-c2sc(NC(=O)N3CCC(C(C)(C)O)C3)nc2-c2cccc(C#N)c2)cc(Cl)n1 (stereo not drawn) [Example 2, N-[5-(2-Chloro-6-methyl-4-pyridyl)-4-(3-cyanophenyl)thiazol-2-yl]-3-(1-hydroxy-1-methyl-ethyl)pyrrolidine-1-carboxamide] | 2
3 | 94 | 267 | 1770 | 3.11 | 6.6 |  | Cc1cc(-c2sc(NC(=O)N3CCNCC3)nc2-c2cccc(C#N)c2)cc(Cl)n1 [Example 3.1] | 13
4 | 14 | 382 | 290 | 0.2 | 1.1 |  | Cc1cc(-c2sc(NC(=O)N3CCC(C)(O)CC3)nc2-c2cccc(C#N)c2)cc(Cl)n1 [Example 3.7] | 3.3
5 | 81 | 338 | 470 | 0.49 | 2.2 |  | Cc1cc(-c2sc(NC(=O)N3CCN[C@H](C(C)(C)O)C3)nc2-c2cccc(C#N)c2)cc(Cl)n1 [Example 3.9] | 17.9
6 | 102 | 1300 | 670 | 0.52 | 1.2 |  | Cc1cc(-c2sc(NC(=O)N3CCN(C4COC4)CC3)nc2-c2cccc(C#N)c2)cc(Cl)n1 [Example 3.11] | 10.4
7 | 18 | 531 | 600 | 0.25 | 1 |  | Cc1cc(-c2sc(NC(=O)N3CCS(=N)(=O)CC3)nc2-c2cccc(C#N)c2)cc(Cl)n1 [Example 3.12] | 8
8 | 60 | 1000 | 130 | 1.01 | 0.7 |  | Cc1cc(-c2sc(NC(=O)N3CCN(C)CC3)nc2-c2cccc(C#N)c2)cc(C)n1 [Example 4, N-[4-(3-Cyanophenyl)-5-(2,6-dimethyl-4-pyridyl)thiazol-2-yl]-4-methyl-piperazine-1-carboxamide] | 3.8
9 | 28 | 881 | 90 | 0.27 | 4.4 |  | Cc1cc(-c2sc(NC(=O)N3CCS(=N)(=O)CC3)nc2-c2cccc(C#N)c2)cc(C)n1 [Example 4.2, N-[4-(3-Cyanophenyl)-5-(2,6-dimethyl-4-pyridyl)thiazol-2-yl]-1-imino-1-oxo-1,4-thiazinane-4-carboxamide] | 7.9
10 |  | 228 | 150 | 1.05 | 2.1 |  | Cc1cc(-c2sc(NC(=O)N3CC[C@H](S(C)(=O)=O)C3)nc2-c2cccc(C#N)c2)cc(C)n1 [Example 6.1, (3S)-N-[4-(3-Cyanophenyl)-5-(2,6-dimethyl-4-pyridyl)thiazol-2-yl]-3-methylsulfonyl-pyrrolidine-1-carboxamide] | 3.6
11 |  | 412 | 160 | 0.88 |  | 0.7 | Cc1cc(-c2sc(NC(=O)N3CC[C@@H](S(C)(=O)=O)C3)nc2-c2cccc(C#N)c2)cc(C)n1 [Example 6.9, (3R)-N-[4-(3-Cyanophenyl)-5-(2,6-dimethyl-4-pyridyl)thiazol-2-yl]-3-methylsulfonyl-pyrrolidine-1-carboxamide] | 4.3
12 | 23 |  | 140 | 0.4 | 3.4 |  | Cc1cc(-c2sc(NC(=O)N3CCN4C(=O)OCC4C3)nc2-c2cccc(C#N)c2)cc(C)n1 (stereo not drawn) [Example 6.13, N-[4-(3-Cyanophenyl)-5-(2,6-dimethyl-4-pyridyl)thiazol-2-yl]-3-oxo-5,6,8,8a-tetrahydro-1H-oxazolo[3,4-a]pyrazine-7-carboxamide] | 3.7
13 | 38 |  | 80 | 0.37 |  | 2.5 | Cc1cc(-c2sc(NC(=O)N3CCOC(C(C)(C)O)C3)nc2-c2cccc(C#N)c2)cc(C)n1 (stereo not drawn) [Example 6.47, N-[4-(3-Cyanophenyl)-5-(2,6-dimethyl-4-pyridyl)thiazol-2-yl]-2-(1-hydroxy-1-methyl-ethyl)morpholine-4-carboxamide] | 1.9
14 |  |  | 320 |  |  |  | Cc1cc(-c2sc(NC(=O)N3CCC4(CC3)CNC(=O)N4C)nc2-c2cccc(C#N)c2)cc(C)n1 [Example 6.51, N-[4-(3-Cyanophenyl)-5-(2,6-dimethyl-4-pyridyl)thiazol-2-yl]-1-methyl-2-oxo-1,3,8-triazaspiro[4.5]decane-8-carboxamide] | 6.1
15 |  |  | 140 |  |  |  | Cc1cc(-c2sc(NC(=O)N3CC4(CCOCC4)C3)nc2-c2cccc(C#N)c2)cc(C)n1 [Example 6.54, N-[4-(3-Cyanophenyl)-5-(2,6-dimethyl-4-pyridyl)thiazol-2-yl]-7-oxa-2-azaspiro[3.5]nonane-2-carboxamide] | 3.3
16 |  |  | 10 |  |  |  | Cc1cc(-c2sc(NC(=O)N3CC4(CNC(=O)C4)C3)nc2-c2cccc(C#N)c2)cc(C)n1 [Example 6.55, N-[4-(3-Cyanophenyl)-5-(2,6-dimethyl-4-pyridyl)thiazol-2-yl]-6-oxo-2,7-diazaspiro[3.4]octane-2-carboxamide] | 2.2
17 |  |  | 60 |  |  |  | Cc1cc(-c2sc(NC(=O)N3CC4(CNC(=O)N4)C3)nc2-c2cccc(C#N)c2)cc(C)n1 [Example 6.57, N-[4-(3-Cyanophenyl)-5-(2,6-dimethyl-4-pyridyl)thiazol-2-yl]-6-oxo-2,5,7-triazaspiro[3.4]octane-2-carboxamide] | 2.6
18 |  |  | 360 |  |  |  | Cc1cc(-c2sc(NC(=O)N3CCC4(CCCC(=O)N4)CC3)nc2-c2cccc(C#N)c2)cc(C)n1 [Example 6.58, N-[4-(3-Cyanophenyl)-5-(2,6-dimethyl-4-pyridyl)thiazol-2-yl]-2-oxo-1,9-diazaspiro[5.5]undecane-9-carboxamide] | 8.5
19 |  |  | 300 |  |  |  | Cc1cc(-c2sc(NC(=O)N3CCC(C)(C#N)CC3)nc2-c2cccc(C#N)c2)c(F)c(C)n1 [Example 6.66, 4-Cyano-N-[4-(3-cyanophenyl)-5-(3-fluoro-2,6-dimethyl-4-pyridyl)thiazol-2-yl]-4-methyl-piperidine-1-carboxamide] | 4.3
20 |  |  | 250 |  |  |  | Cc1cc(-c2sc(NC(=O)N3CC(C)(O)C3)nc2-c2cccc(C#N)c2)c(F)c(C)n1 [Example 6.67, N-[4-(3-Cyanophenyl)-5-(3-fluoro-2,6-dimethyl-4-pyridyl)thiazol-2-yl]-3-hydroxy-3-methyl-azetidine-1-carboxamide] | 10.6
21 |  |  | 200 |  |  |  | Cc1cc(-c2sc(NC(=O)N3CC[C@H]3CO)nc2-c2cccc(C#N)c2)cc(C)n1 [Example 6.73, (2S)-N-[4-(3-Cyanophenyl)-5-(2,6-dimethyl-4-pyridyl)thiazol-2-yl]-2-(hydroxymethyl)azetidine-1-carboxamide] | 13.5
